Test results published in PubChem BioAssay AID248 (DTP/NCI, 2004).
“And” between values parts separate entries of the source, which are not always exact repeats. Equal values may be shown once. Toxic doses and inconclusive results are not listed. Rule as the data show it: active = T/C of 150% or more; inactive = T/C below 125%.

Tested on: L1210 leukemia ip in BDF1 mice, survival T/C
Experiment: NCI In Vivo Anticancer Drug Screen. Data for tumor model L1210 Leukemia (intraperitoneal) in B6D2F1 (BDF1) mice
Details: endpoint: mean survival time, higher = longer survival
Procedure, shortened: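 In this screen, tumor-bearing mice given compound are compared to those given vehicle, and their survival values are reported as a treated-to-control quotient.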

[1] = dose: 100.0 mg/kg/injection, schedule: Q04DX003 (ip), vehicle: saline with Tween-80
[2] = dose: 200.0 mg/kg/injection, schedule: Q04DX003 (ip), vehicle: saline with Tween-80
[3] = dose: 400.0 mg/kg/injection, schedule: Q04DX003 (ip), vehicle: saline with Tween-80
[4] = dose: 50.0 mg/kg/injection, schedule: Q01DX009 (ip), vehicle: saline with Tween-80
[5] = dose: 100.0 mg/kg/injection, schedule: Q01DX009 (ip), vehicle: saline with Tween-80
[6] = dose: 200.0 mg/kg/injection, schedule: Q01DX009 (ip), vehicle: saline with Tween-80
[7] = dose: 100.0 mg/kg/injection, schedule: Q01DX001 (ip), vehicle: saline
[8] = dose: 200.0 mg/kg/injection, schedule: Q01DX001 (ip), vehicle: saline
[9] = dose: 400.0 mg/kg/injection, schedule: Q01DX001 (ip), vehicle: saline
[10] = dose: 100.0 mg/kg/injection, schedule: Q01DX009 (ip), vehicle: Klucel (hydroxypropylcellulose) (HPC)
[11] = dose: 100.0 mg/kg/injection, schedule: Q04DX003 (ip), vehicle: Klucel (hydroxypropylcellulose) (HPC)
[12] = dose: 200.0 mg/kg/injection, schedule: Q01DX009 (ip), vehicle: Klucel (hydroxypropylcellulose) (HPC)
[13] = dose: 200.0 mg/kg/injection, schedule: Q04DX003 (ip), vehicle: Klucel (hydroxypropylcellulose) (HPC)
[14] = dose: 400.0 mg/kg/injection, schedule: Q01DX009 (ip), vehicle: Klucel (hydroxypropylcellulose) (HPC)
[15] = dose: 400.0 mg/kg/injection, schedule: Q04DX003 (ip), vehicle: Klucel (hydroxypropylcellulose) (HPC)
[16] = dose: 100.0 mg/kg/injection, schedule: Q04DX002 (ip), vehicle: Klucel (hydroxypropylcellulose) (HPC)
[17] = dose: 200.0 mg/kg/injection, schedule: Q04DX002 (ip), vehicle: Klucel (hydroxypropylcellulose) (HPC)
[18] = dose: 400.0 mg/kg/injection, schedule: Q04DX002 (ip), vehicle: Klucel (hydroxypropylcellulose) (HPC)
[19] = dose: 100.0 mg/kg/injection, schedule: Q04DX003 (ip), vehicle: saline
[20] = dose: 50.0 mg/kg/injection, schedule: Q01DX001 (ip), vehicle: saline
[21] = dose: 50.0 mg/kg/injection, schedule: Q01DX009 (ip), vehicle: saline
[22] = dose: 100.0 mg/kg/injection, schedule: Q04DX002 (ip), vehicle: saline with Tween-80
[23] = dose: 200.0 mg/kg/injection, schedule: Q04DX002 (ip), vehicle: saline with Tween-80
[24] = dose: 400.0 mg/kg/injection, schedule: Q04DX002 (ip), vehicle: saline with Tween-80

Measured: T/C

O=C(c1ccccc1)c1cccc(C(Br)Br)c1
inactive: [1] 96 % of control | [2] 95 % of control | [3] 95 % of control

C(=C\c1ccc(-n2nc3ccc4ccccc4c3n2)cc1)/c1ccccc1
inactive: [4] 97 % of control | [5] 102 % of control | [6] 102 % of control

COC(=O)C1(C)CCCC2(C)c3cc(OC)c4c(c3CCC12)C(=O)CCC4 (stereo not given)
inactive: dose: 100.0 mg/kg/injection, schedule: Q01DX001 (sc), vehicle: steriod suspending solution 93 % of control | dose: 200.0 mg/kg/injection, schedule: Q01DX001 (sc), vehicle: steriod suspending solution 90 % of control | dose: 400.0 mg/kg/injection, schedule: Q01DX001 (sc), vehicle: steriod suspending solution 98 % of control

CCCC(=O)CCNC
inactive: [7] 103 % of control | [8] 94 % of control | [9] 111 % of control

O=S(=O)(O)c1ccc(N=Nc2ccc(O)cc2)cc1
inactive: dose: 25.0 mg/kg/injection, schedule: Q01DX009 (ip), vehicle: saline with Tween-80 104 % of control | [4] 102 % of control | [10] 88 % of control | [5] 101 % of control | [11] 92 % of control and 98 % of control | [1] 107 % of control | [12] 88 % of control | [13] 92 % of control and 102 % of control | [14] 90 % of control | [15] 97 % of control

O=C(/C=C\c1ccccc1)OCc1ccccc1CN1CCCCC1
inactive: [16] 108 % of control | [17] 116 % of control | [18] 90 % of control

CCCCOCC(C)O (stereo not given)
inactive: [19] 91 % of control | dose: 200.0 mg/kg/injection, schedule: Q04DX003 (ip), vehicle: saline 96 % of control | dose: 400.0 mg/kg/injection, schedule: Q04DX003 (ip), vehicle: saline 96 % of control

O=C(NCCCl)NC1CCCC(O)C1 (stereo not given)
inactive: [7] 101 % of control | [8] 101 % of control | [9] 93 % of control

COC(OC)C1=CC(=O)NC(NC(=O)C(Cl)Cl)N1 (stereo not given)
inactive: [20] 92 % of control | [7] 98 % of control | [8] 95 % of control

O=C1c2cc([N+](=O)[O-])ccc2-c2cccc(F)c21
inactive: dose: 100.0 mg/kg/injection, schedule: Q04DX003 (ip), vehicle: acetone 102 % of control | dose: 200.0 mg/kg/injection, schedule: Q04DX003 (ip), vehicle: acetone 94 % of control | dose: 400.0 mg/kg/injection, schedule: Q04DX003 (ip), vehicle: acetone 109 % of control

CC12CCCCC1CC(=O)/C(=C\O)C2 (stereo not given)
inactive: dose: 25.0 mg/kg/injection, schedule: Q04DX002 (ip), vehicle: DMSO 94 % of control | dose: 50.0 mg/kg/injection, schedule: Q04DX002 (ip), vehicle: DMSO 90 % of control

Cc1ccc(N=C(N)N=C(N)N)cc1C
inactive: dose: 75.0 mg/kg/injection, schedule: Q01DX001 (ip), vehicle: carboxymethylcellulose (CMC) 97 % of control | dose: 150.0 mg/kg/injection, schedule: Q01DX001 (ip), vehicle: carboxymethylcellulose (CMC) 97 % of control | dose: 300.0 mg/kg/injection, schedule: Q01DX001 (ip), vehicle: carboxymethylcellulose (CMC) 91 % of control

CCCCCCCCCCCCCCCCCC[As](=O)(O)CCCCCCCCCCCCCCCCCC
inactive: [20] 97 % of control | [7] 101 % of control | [8] 91 % of control | [9] 101 % of control

Cc1ncc(C#N)n1Cc1ccccc1
inactive: [10] 98 % of control and 101 % of control | [16] 101 % of control and 113 % of control | [11] 109 % of control | [12] 101 % of control and 103 % of control | [17] 103 % of control and 108 % of control | [13] 104 % of control | [14] 101 % of control | [18] 103 % of control and 109 % of control | [15] 111 % of control

Cc1nc(Cl)c2cnccn12
inactive: dose: 12.5 mg/kg/injection, schedule: Q01DX009 (ip), vehicle: saline 101 % of control | dose: 25.0 mg/kg/injection, schedule: Q01DX009 (ip), vehicle: saline 105 % of control | [21] 103 % of control | [19] 88 % of control

O=C(O)c1ccc2c(c1)C(=O)N(c1ccccc1)C2=O
inactive: [22] 93 % of control | [23] 93 % of control | [24] 97 % of control

N#CCCNC(=O)Nc1cccc2ccccc12
inactive: dose: 100.0 mg/kg/injection, schedule: Q01DX001 (ip), vehicle: carboxymethylcellulose (CMC) 96 % of control | dose: 200.0 mg/kg/injection, schedule: Q01DX001 (ip), vehicle: carboxymethylcellulose (CMC) 100 % of control | dose: 400.0 mg/kg/injection, schedule: Q01DX001 (ip), vehicle: carboxymethylcellulose (CMC) 96 % of control

C=C(C)C1C2OC(=O)C1C1(O)CC3OC34C(=O)OC2C14C (stereo not given)
inactive: dose: 1.25 mg/kg/injection, schedule: Q01DX001 (ip), vehicle: other 109 % of control | dose: 2.5 mg/kg/injection, schedule: Q01DX001 (ip), vehicle: other 101 % of control

C=CCCC1(C(C)CC)C(=O)NC(=S)NC1=O (stereo not given)
inactive: dose: 75.0 mg/kg/injection, schedule: Q01DX001 (ip), vehicle: saline 100 % of control | dose: 150.0 mg/kg/injection, schedule: Q01DX001 (ip), vehicle: saline 95 % of control | dose: 300.0 mg/kg/injection, schedule: Q01DX001 (ip), vehicle: saline 100 % of control

Cc1ccc(C(=O)C(Br)C(Br)c2ccccc2)cc1 (stereo not given)
inactive: [10] 89 % of control | [5] 90 % of control | [1] 92 % of control | [12] 89 % of control | [6] 89 % of control | [2] 89 % of control | [14] 96 % of control | [3] 95 % of control

CN=NC(OC(C)=O)(c1ccccc1)c1ccccc1
inactive: dose: 100.0 mg/kg/injection, schedule: Q01DX001 (ip), vehicle: Klucel (hydroxypropylcellulose) (HPC) 101 % of control | [10] 100 % of control | [11] 108 % of control | dose: 200.0 mg/kg/injection, schedule: Q01DX001 (ip), vehicle: Klucel (hydroxypropylcellulose) (HPC) 95 % of control | [12] 97 % of control | [13] 103 % of control | dose: 400.0 mg/kg/injection, schedule: Q01DX001 (ip), vehicle: Klucel (hydroxypropylcellulose) (HPC) 94 % of control | [14] 105 % of control | [15] 101 % of control

CN=C(N)Nc1ccccc1
inactive: [4] 97 % of control | [21] 101 % of control | [5] 90 % of control | dose: 100.0 mg/kg/injection, schedule: Q01DX009 (ip), vehicle: saline 101 % of control | [6] 97 % of control | dose: 200.0 mg/kg/injection, schedule: Q01DX009 (ip), vehicle: saline 101 % of control

Oc1ccc2ccccc2c1C(c1ccccc1)c1c(O)ccc2ccccc12
inactive: dose: 87.5 mg/kg/injection, schedule: Q04DX003 (ip), vehicle: carboxymethylcellulose (CMC) 106 % of control | dose: 175.0 mg/kg/injection, schedule: Q04DX003 (ip), vehicle: carboxymethylcellulose (CMC) 95 % of control | dose: 350.0 mg/kg/injection, schedule: Q04DX003 (ip), vehicle: carboxymethylcellulose (CMC) 111 % of control

CC1(O)c2ccccc2-c2c1n([O-])c1ccccc1[n+]2=O (stereo not given)
inactive: dose: 100.0 mg/kg/injection, schedule: Q04DX003 (ip), vehicle: saline sonified 111 % of control | dose: 200.0 mg/kg/injection, schedule: Q04DX003 (ip), vehicle: saline sonified 100 % of control | dose: 400.0 mg/kg/injection, schedule: Q04DX003 (ip), vehicle: saline sonified 89 % of control

CC1=CC(C)(C)NC(=S)N1c1cccc([N+](=O)[O-])c1
inactive: dose: 224.0 mg/kg/injection, schedule: Q01DX Z (ip), vehicle: methylcellulose (MC) 88 % of control | dose: 334.0 mg/kg/injection, schedule: Q01DX Z (ip), vehicle: methylcellulose (MC) 89 % of control | dose: 500.0 mg/kg/injection, schedule: Q01DX Z (ip), vehicle: methylcellulose (MC) 94 % of control

CCCCCC#CC(=O)OC(C)C
inactive: [22] 102 % of control | [23] 102 % of control | [24] 102 % of control
